From patent publication US20260242362A1, “PREPARATION OF 3,4,5-TRISUBSTITUTED TRIAZOLES AND METHODS OF USING THE SAME” (University of Florida Research Foundation, Incorporated, priority 2023, published 2026)
Like-named read-outs stand apart in the source and are kept apart here.

Key:
kappa opioid receptor [1] = target: T1, kappa opioid receptor (Homo sapiens, UniProt P41145); experiment: GTPγS binding assay (G-protein activation); type: biochemical; conditions: for GTPγS Emax (% U60): relative to U69,593 = 100% Emax; for EC50: 3 parameter nonlinear regression, nc = did not converge
Target sequence in this assay (P41145 whole entry, the tested form may be a part): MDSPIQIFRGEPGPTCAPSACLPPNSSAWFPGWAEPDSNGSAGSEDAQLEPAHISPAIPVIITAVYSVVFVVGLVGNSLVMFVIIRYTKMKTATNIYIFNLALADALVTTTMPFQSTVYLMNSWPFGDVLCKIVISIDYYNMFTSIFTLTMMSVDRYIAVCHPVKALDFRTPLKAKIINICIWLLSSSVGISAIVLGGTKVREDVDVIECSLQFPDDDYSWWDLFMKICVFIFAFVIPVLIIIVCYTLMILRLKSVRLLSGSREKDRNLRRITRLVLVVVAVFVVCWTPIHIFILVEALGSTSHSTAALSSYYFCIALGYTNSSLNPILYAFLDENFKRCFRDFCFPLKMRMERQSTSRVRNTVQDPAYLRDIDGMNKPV

kappa opioid receptor [2] = target: T1, kappa opioid receptor; experiment: PathHunter DiscoverX β-arrestin2 recruitment (enzyme fragment complementation) assay; type: cell-based; conditions: for β-arrestin2 Emax (% U60): relative to U69,593 = 100% Emax, ~ did not plateau at 100%; for EC50: 3 parameter nonlinear regression, nc = did not converge; for β-arrestin2 maximum stimulation observed at 10 μM (starred Emax cells / % max at 10 uM): * compounds that did not reach plateau
Target sequence in this assay (P41145 whole entry, the tested form may be a part): as above
Target sequence in this assay (P32121 whole entry partner, the tested form may be a part): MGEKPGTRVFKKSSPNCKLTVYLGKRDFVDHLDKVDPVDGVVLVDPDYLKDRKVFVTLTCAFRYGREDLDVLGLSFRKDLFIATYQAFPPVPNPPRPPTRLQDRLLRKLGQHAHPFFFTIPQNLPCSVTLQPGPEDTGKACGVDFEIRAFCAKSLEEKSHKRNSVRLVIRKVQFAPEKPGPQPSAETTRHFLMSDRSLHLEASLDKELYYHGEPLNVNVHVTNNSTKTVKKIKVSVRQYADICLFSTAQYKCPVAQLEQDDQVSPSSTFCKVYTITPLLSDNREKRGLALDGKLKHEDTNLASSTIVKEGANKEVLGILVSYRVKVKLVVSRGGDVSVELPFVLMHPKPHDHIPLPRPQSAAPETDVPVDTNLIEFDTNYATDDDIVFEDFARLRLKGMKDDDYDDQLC

[3] = Microsomal stability, LC/MS detection over time; conditions: mouse hepatic microsomes
Procedure: (§2) Microsomal stability was determined using mouse hepatic microsomes and LC/MS detections over time (Zhou et al., 2013, 22).

δ-opioid receptor = target: T2, δ-opioid receptor (Homo sapiens, UniProt P41143); experiment: Radioligand binding displacement (Psychoactive Drug Screening Program); conditions: initial profiling
T2 construct: Psychoactive Drug Screening Program (UNC-CH)
Source text: (§1) In some embodiments, the compounds disclosed herein are selective KOR binding ligands. As used herein, the term “selective binding ligands” refers to compounds, which display an increased selectivity for binding a particular KOR when compared to inhibiting other opioid receptors (such as μ- and δ-opioid receptors).

μ-opioid receptor = target: T3, μ-opioid receptor (Homo sapiens, UniProt P35372); experiment: as above; conditions: initial profiling
T3 construct: Psychoactive Drug Screening Program (UNC-CH)
Source text: as §1

adult male C57BL6/J mice [4] = conditions: mouse, in vivo
adult male C57BL6/J mice [5] = experiment: Open field test box mouse model for sedation; conditions: 60 minutes
kappa opioid receptor [6] = target: T1, kappa opioid receptor; experiment: Bias analysis by operational model, G protein vs βarrestin2, U69,593 as reference agonist; conditions: U69,593 reference agonist; global parameter fitting
Target sequence in this assay (P41145 whole entry, the tested form may be a part): as the sequence (P41145 whole entry, the tested form may be a part) above

[7] = mouse, microsomes
Procedure: as §2

T2 sequence (P41143 whole entry): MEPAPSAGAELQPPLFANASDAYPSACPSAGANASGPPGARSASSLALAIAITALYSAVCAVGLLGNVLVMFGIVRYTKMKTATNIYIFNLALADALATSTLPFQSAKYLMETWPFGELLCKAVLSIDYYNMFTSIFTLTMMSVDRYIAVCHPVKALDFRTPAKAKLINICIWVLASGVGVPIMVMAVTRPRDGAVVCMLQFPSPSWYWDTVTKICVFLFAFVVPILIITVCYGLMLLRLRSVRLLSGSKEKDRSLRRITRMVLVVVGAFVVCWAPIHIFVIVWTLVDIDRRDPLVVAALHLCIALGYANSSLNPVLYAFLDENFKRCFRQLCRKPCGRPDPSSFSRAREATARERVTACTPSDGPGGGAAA
T3 sequence (P35372 whole entry): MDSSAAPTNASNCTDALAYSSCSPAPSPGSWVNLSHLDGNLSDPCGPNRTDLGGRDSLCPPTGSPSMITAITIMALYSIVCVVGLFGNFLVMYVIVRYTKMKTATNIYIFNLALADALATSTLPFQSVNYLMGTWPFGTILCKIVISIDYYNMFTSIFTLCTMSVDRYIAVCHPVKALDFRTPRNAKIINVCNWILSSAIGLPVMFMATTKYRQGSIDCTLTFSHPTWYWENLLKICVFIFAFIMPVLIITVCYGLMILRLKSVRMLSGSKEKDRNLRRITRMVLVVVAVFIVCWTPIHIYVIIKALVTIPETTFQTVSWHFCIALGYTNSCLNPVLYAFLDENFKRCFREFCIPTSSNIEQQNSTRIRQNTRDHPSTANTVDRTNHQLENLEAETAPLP

SMILES	GTPγS Emax (% U60) (kappa opioid receptor [1])	β-arrestin2 Emax (% U60) (kappa opioid receptor [2])	EC50 (kappa opioid receptor [2]; read-out: β-arrestin2 EC50) [nM]	EC50 (kappa opioid receptor [1]) [nM]	Microsomal Stability [7] [min]	β-arrestin2 maximum stimulation observed at 10 μM (starred Emax cells / % max at 10 uM) (kappa opioid receptor [2])	further results
Clc1ccc(CCc2nnc(-c3ccccn3)n2Cc2cccs2)c(Cl)c1 [Compound 33]	91	154	–	–	–	–	Microsomal Stability [3]: 2.1 min
Cc1ccc(CCc2nnc(-c3ccccn3)n2Cc2cccs2)cc1C(F)(F)F [Compound 5]	–	110	624	–	–	–	displacement of radioligand binding to δ-opioid receptor (δ-opioid receptor): less than 50%; displacement of radioligand binding to μ-opioid receptor (μ-opioid receptor): less than 50%; sedation in open field test activity monitor (adult male C57BL6/J mice [4]): does not induce sedation
Clc1ccc(CCc2nnc(-c3ccccn3)n2Cc2cccs2)cc1Cl [Compound 32]	–	–	–	–	–	–	Microsomal Stability [3]: 1.5 min
Cc1ccc(CSc2nnc(-c3ccccn3)n2Cc2ccco2)cc1C(F)(F)F [Triazole 1.1]	–	–	–	–	–	–	sedation in open field test activity monitor (adult male C57BL6/J mice [5]): does not induce sedation; time spent in the center of the open field box (adult male C57BL6/J mice [5]): did not effect center time; Microsomal Stability [3]: 1.1 min
Cc1ccc(/C=C/c2nnc(-c3ccccn3)n2Cc2ccco2)cc1C(F)(F)F [42 (UNC9008)]	96.5	119	51300	1600	–	–	Bias (bias factor 10^ΔΔ(logτ/KA) Gprotein-Barr2) (kappa opioid receptor [6]): 3.5
Cc1ccc(CCc2nnc(-c3nccn3C)n2Cc2cccs2)cc1C(F)(F)F [Compound 56]	105	98	888	95	–	–	Bias (bias factor 10^ΔΔ(logτ/KA) Gprotein-Barr2) (kappa opioid receptor [6]): 12
Cc1ccc(CCc2nnc(-c3ccccn3)n2Cc2ccco2)cc1C(F)(F)F [Compound 2]	90	119	–	–	–	–	EC50 (kappa opioid receptor [2]; β-arrestin2 EC50 (nM)): 788 nM; Microsomal Stability ([3]; Table 1, head prints no unit (b175 gives min)): 0.9; Microsomal Stability [3]: 0.9 min
Cc1ccc(/C=C/c2nnc(-c3ccccn3)n2Cc2nccs2)cc1C(F)(F)F [Compound 48]	82	–	–	767	19.1	51* % U60	–
Cc1ccc(/C=C/c2nnc(-c3ccccn3)n2Cc2ccco2)cc1C(F)(F)F (single isomer, unassigned) [Compound 40]	97	54	7200	1600	18	–	KOR potency / activity in words (SAR commentary) (kappa opioid receptor [1]): loss in potency; Bias (bias factor 10^ΔΔ(logτ/KA) Gprotein-Barr2) (kappa opioid receptor [6]): 5
Cc1ccc(/C=C/c2nnc(-c3nccn3C)n2Cc2cccs2)cc1C(F)(F)F [Compound 50]	77	–	55800	1010	12.2	38* % U60	–
FC(F)(F)c1ccc(CCc2nnc(-c3ccccn3)n2Cc2cccs2)cc1Cl [Compound 34]	–	–	127	1.4	1.3	–	–
Brc1ccccc1CCc1nnc(-c2ccccn2)n1Cc1cccs1 [Compound 30]	84	–	> 10000	–	1.7	53* % U60	–
Cc1ccc(CCc2nnc(-c3cccn3C)n2Cc2cccs2)cc1C(F)(F)F [Compound 23]	–	–	1320	36	3.1	–	–
C(=C/c1nnc(-c2ccccn2)n1Cc1ccco1)/c1ccccc1 [Compound 38]	–	–	–	–	19.4	0* % U60	GTPγS maximum stimulation observed at 10 μM (starred Emax cells) (kappa opioid receptor [1]; * compounds that did not reach plateau, 10 μM): 3* % U60
Cc1ccc(CCN(CCc2ccco2)C(=O)c2ccccn2)cc1C(F)(F)F [Compound 61]	78	–	> 10000	1540	0.9	41* % U60	–
Clc1ccc(CCc2nnc(-c3ccccn3)n2Cc2cccs2)cc1 [Compound 27]	93	102	3740	35	3.3	–	–
Cc1ccc(CCc2nnc(-c3ccccn3)n2Cc2ccsc2)cc1C(F)(F)F [Compound 6]	–	–	813	12	1.0	–	–
Clc1ccc(CCc2nnc(-c3ccccn3)n2Cc2ccco2)cc1 [Compound 52]	84	191	4530	99	3.3	–	–
Cc1ccc(/C=C/c2nnc(-c3ccccn3)n2Cc2cccs2)cc1C(F)(F)F [49 (UNC9009)]	83.2	–	20600	667	–	36.4 (% max at 10 uM) % U60	Bias (bias factor 10^ΔΔ(logτ/KA) Gprotein-Barr2) (kappa opioid receptor [6]): 6.7
Cc1ccc(CCCN(CCCc2ccco2)C(=O)c2ccccn2)cc1C(F)(F)F [Compound 64]	88	–	> 10000	3060	1.0	26* % U60	–
